The results in this text go back to patent US4692511A, “Peptide antagonists for the C5a anaphylatoxin” (Immunetech Pharmaceuticals, priority 1984, dated 1987).

This assay concerns the target T1, C5a receptor (Homo sapiens, UniProt P21730).
T1 sequence (P21730 1-350): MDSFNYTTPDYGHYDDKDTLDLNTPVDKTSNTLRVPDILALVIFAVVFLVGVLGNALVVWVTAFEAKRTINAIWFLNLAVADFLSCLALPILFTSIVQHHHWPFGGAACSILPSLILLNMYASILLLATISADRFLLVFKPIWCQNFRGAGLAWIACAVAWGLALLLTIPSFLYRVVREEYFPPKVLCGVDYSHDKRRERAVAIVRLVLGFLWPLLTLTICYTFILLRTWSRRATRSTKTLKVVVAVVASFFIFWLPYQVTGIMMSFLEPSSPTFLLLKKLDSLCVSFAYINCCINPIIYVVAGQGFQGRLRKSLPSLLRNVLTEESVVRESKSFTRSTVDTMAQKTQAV
The experiment in a line: C5a receptor blocking activity of the peptides of the invention.

Each structure is given as a SMILES string. Peptide text beside a SMILES is read from it.

Consider `C[C@H](NC(=O)CNC(=O)[C@@H](N)CC(=O)O)C(=O)O` [Asp-Gly-Ala] (H-Asp-Gly-Ala-OH), for which the C5a blocking activity result is “displays C5a blocking activity”.
